Experimental findings from patent publication US20090012152A1, “Use of Tetramic Acid Derivatives for Controlling Insects from the Genus of the Plane Lice (Sternorrhyncha)” (Bayer CropScience Aktiengesellschaft, priority 2005, published 2009) are described below.

What all share (format): in vivo
For test [1], the system named is Psylla piri. Briefly: Example 6: pear trees treated against Psylla piri. The following applies: larvae on shoots, % a.i.: amitraz 0.05, I-9, I-2, I-1 0.096; for Kill (%) 3 d: 3 d after last of two treatments; for Kill (%) 10 d: 10 d after last of two treatments; for Kill (%) 20 d: 20 d after last of two treatments. As to the method:
In three replications, in each case 4 about 4-year-old pear trees of the cultivar “Williams Christ” are treated against Psylla piri. Two applications are carried out at an interval of 11 days using a motor-operated barrow-mounted sprayer. Here, the active compounds Example (I-9) (240 SC), Example (I-2) (240 SC) and Example (I-1) (240 SC) are tested against the commercial standard Amitraz (200 EC) at the stated amounts. The application rate is 2000 l of water/ha.
Evaluation is carried out 3, 10 and 20 days after the last treatment by rating the kill of the larvae in percent on the shoots.

Test [2] concerns Bemisia argentifolii. Briefly: Example 36: aubergine plants (Ryoma) treated against Bemisia argentifolii. The following applies: nymphs on leaves, % a.i.: pymetrozine 0.0125, I-4 0.072, I-8 0.06; for Kill (%) 13 d: 13 d after treatment; for Kill (%) 20 d: 20 d after treatment; for Kill (%) 27 d: 27 d after treatment. How it is done:
In three replications, in each case four aubergine plants of the cultivar “Ryoma” are treated against Bemisia argentifolii. The application is carried out using a motor-operated knapsack sprayer. Here, the active compounds Example (I-4) and Example (I-8), in a tank mix with 0.2% a.i. of rapeseed oil methyl ester (500 EW), and the commercial standard pymetrozine (25 WP) are tested at the stated application rates. The application rate is 3200 l of water/ha.
Evaluation is carried out 13, 20 and 27 days after the treatment by rating the kill of the nymphs on the leaves.

The subject of the next test is Nasonovia ribisnigri. In words: Example 42: head lettuce treated against Nasonovia ribisnigri. The following applies: on plants, g a.i./ha: Pirimor 150, I-4 48, I-8 42. As to the method: In four replications, plots of a size of 5 m^2 with head lettuce are, two weeks after transplantation, treated against Nasonovia ribisnigri. The application is carried out using a knapsack sprayer operated with pressurized air. Here, the active compounds Example (I-4) (240 SC) and Example (I-8) (240 SC) are, in a tank mix with 0.2% a.i. of rapeseed oil methyl ester (500 EW), tested against the commercial standard Pirimor, at the stated application rates. The application rate is 500 l of water/ha.
Evaluation is carried out 7, 14 and 26 days after the treatment by rating the kill of the animals on the plants.

The next test relates to Saissetia oleae. In words: Example 13: orange trees treated against Saissetia oleae. The following applies: nymphs on leaves, g a.i./ha/m crown height: buprofezin 500, I-4 72, I-8 30. How it is done: In three replications, in each case two about 8-year-old orange trees are treated against Saissetia oleae. Here, the active compounds Example (I-4) (240 SC) and Example (I-8) (250 SC) in a tank mix with 0.2% a.i. of rapeseed oil methyl ester (500 EW) at the stated application rate are tested against the commercial standard buprofezin in a tank mix with 0.4% a.i. of Oliocin (800 EW) at the stated application rate. The application is carried out using a motor-operated knapsack sprayer. The application rate is 3000 l of water/ha. Two treatments are carried out, at an interval of 29 days.
Evaluation is carried out 24 and 44 days after the last treatment by rating the kill of the nymphs on the leaves.

Test [3] has as its system Psylla piri. Briefly: Example 5: pear trees treated against Psylla piri. The following applies: nymphs on shoots, g a.i./ha/m crown height: amitraz 266, I-4 72. How it is done: In three replications, pear trees of the cultivar “Williams Christ” are treated against Psylla piri. Application is shortly before the eggs hatch. The application is carried out using a barrow-mounted sprayer operated with pressurized air. Here, the active compound Example (I-4) (240 SC) is tested in a tank mix with 0.1% a.i. rapeseed oil methyl ester (500 EW) at the stated amount against the standard amitraz (200 EC) at the stated amount. The application rate is 1000 l of water/ha.
Evaluation is carried out 7, 14 and 21 days after the treatment by rating the kill of the nymphs on the shoots.

Another test relates to Paratrioza cockerelli. In words: Example 7: bell peppers treated against Paratrioza cockerelli. The following applies: nymphs on leaves, g a.i./ha: imidacloprid 52.6, I-4 72, dimethoate 561. As to the method:
In four replications, plots of a size of about 7 m^2 with bell peppers of the cultivar “Jupiter” are treated against Paratrioza cockerelli. The application is carried out with a knapsack sprayer operated with pressurized air. Here, the active compound Example (I-4) (240 SC) is applied in a tank mix with 0.2% a.i. of rapeseed oil methyl ester (500 EW) and the commercial standards imidacloprid 192 SC and dimethoate (480 EC) are applied in a tank mix with 0.125% Induce at the stated application rates. The application is carried out with an application rate of 467 l of water/ha.
Evaluation is carried out 7 and 15 days after the treatment by rating the kill of the animals (nymphs) on the leaves.

The subject of a further test is Aulacorthum solani. In words: Example 46: head lettuce treated against Aulacorthum solani. The following applies: nymphs on plants, g a.i./ha: endosulfan 1120, I-4 48. How it is done:
(§1) In four replications, plots of a size of about 33 m^2 with head lettuce of the cultivar “PIC 714” are treated against Aulacorthum solani, Macrosiphum euphorbiae and Myzus persicae. The application is carried out using a tractor sprayer. Here, the active compound Example (I-4) (240 SC), in a tank mix with 0.2% a.i. of rapeseed oil methyl ester (500 EW), is tested against the commercial standard endosulfan (360 EC), at the stated application rates. The application rate is 187 l of water/ha. Two treatments are carried out, at an interval of 22 days.
(§2) Evaluation is carried out 8, 22, 30 and 40 days after the first treatment by rating the kill of the nymphs on the plants.

In test [4] the test system is Bemisia argentifolii. Briefly: Example 37: cantaloupe melons treated against Bemisia argentifolii. The following applies: nymphs on leaves, g a.i./ha: endosulfan 1120, I-4 48. How it is done: In four replications, plots of a size of about 39 m^2 with cantaloupe melons of the cultivar “Western Shipper” are treated against Bemisia argentifolii. The application is carried out using a knapsack sprayer operated with pressurized air. Here, the active compound Example (I-4) (240 SC), in a tank mix with 0.2 a.i. of rapeseed oil methyl ester (500 EW), and the commercial standard endosulfan (360 EC) are tested at the stated application rates. Two applications are carried out at an interval of 16 days. The application rate is 187 l of water/ha.
Evaluation is carried out 5, 13, 21 and 29 days after the first treatment by rating the kill of the animals (nymphs) on the leaves.

For test [5], the system named is Myzus persicae. In words: Example 46: head lettuce treated against Myzus persicae. The following applies: nymphs on plants, g a.i./ha: endosulfan 1120, I-4 48. How it is done: as §1, §2
The next test concerns Macrosiphum euphorbiae. In words: Example 46: head lettuce treated against Macrosiphum euphorbiae. The following applies: nymphs on plants, g a.i./ha: endosulfan 1120, I-4 48. How it is done: as §1, §2
A further test relates to Pemphigus bursarius. Briefly: Example 3: chrysanthemums, lettuce root aphid. The following applies: on roots, drip irrigation 0.1%. As to the method: In three replications, in each case 10 about 5-month-old chrysanthemums (Camilla) in 2 l-vessels are treated against the lettuce root aphid Pemphigus bursarius. Here, the active compound Example (I-4) (240 SC) is applied with a knapsack sprayer operated by pressurized air at the beginning of the infestation at the stated application rates to the above-ground parts of the plants. The soil is covered with a film. The application rate is 600 l of water/ha. 0.1% a.i. of rapeseed oil methyl ester (500 EW) is added to the spray liquor. Omethoate as drip irrigation in a concentration of 0.1% is used for comparison. The application is carried out two days later.
The kill in percent is determined on the roots. […]

Test [6] has as its system Myzus persicae. In words: Example 48: aubergine plants treated against Myzus persicae. The following applies: on leaves, rate (g of a.i./ha): pymethrozine 0.0125, I-4 0.024. As to the method:
In three replications, four aubergine plants (age about 7 months) of the cultivar “Hayabusa” are treated against Myzus persicae. The application is carried out using a motor-operated knapsack sprayer. Here, the active compound Example (I-4) (240 SC), in a tank mix with 0.1% a.i. of rapeseed oil methyl ester (500 EW), and the commercial standard pymethrozine (25 WP) are tested at the stated application rates. The application rate is 3000 l of water/ha.
Evaluation is carried out 7, 14, 21 and 29 days after the treatment by rating the kill of the animals on the leaves.

Setting [7] is: 8 d after first of two treatments.
The mark [8] stands for this setting: 22 d after first of two treatments.
[9] abbreviates: 30 d after first of two treatments.
[10] abbreviates: 40 d after first of two treatments.

For `COC1CCC2(CC1)NC(=O)C(c1cc(C)ccc1Br)=C2OC(=O)C(C)C` (stereo not shown) [Example (I-1)], in the test with Psylla piri [1], the “Kill (%) 3 d” value came out at 90.0%, the “Kill (%) 10 d” value turned out to be 96.6% and the “Kill (%) 20 d” value is recorded as 95.0%.
For `CCOC(=O)OC1=C(c2cc(C)c(Cl)cc2C)C(=O)NC12CCC(OC)CC2` (stereo not shown) [Example (I-8)], in the test with Bemisia argentifolii [2], the “Kill (%) 13 d” value was 99.5%, the “Kill (%) 20 d” value turned out to be 99.9% and the “Kill (%) 27 d” value was 97%. Also, the “Kill (%) 7 d” value in the test with Nasonovia ribisnigri (7 d after treatment) came to 80.8%. Further, the “Kill (%) 14 d” value in the test with Nasonovia ribisnigri (14 d after treatment) was found to be 93.6%. The “Kill (%) 26 d” value with Nasonovia ribisnigri (26 d after treatment) was 92.7%. Moreover, the “Kill (%) 24 d” value in the test with Saissetia oleae (24 d after last of two treatments) was 66.5%. Also, the “Kill (%) 44 d” value in the test on Saissetia oleae (44 d after last of two treatments) is 56.1%.
For `Cc1ccc(/N=C/N(C)/C=N/c2ccc(C)cc2C)c(C)c1` [amitraz, reference compound], the “Kill (%) 7 d” value with Psylla piri [3] (7 d after treatment) is given as 100%. The “Kill (%) 14 d” value with Psylla piri [3] (14 d after treatment) stood at 95.2%. In addition, the “Kill (%) 21 d” value in the test with Psylla piri [3] (21 d after treatment) was found to be 75%. Also, in the test with Psylla piri [1], the “Kill (%) 3 d” value was 54.3%, the “Kill (%) 10 d” value was 56.7% and the “Kill (%) 20 d” value worked out at 21.4%.
For `CNC(=O)CSP(=S)(OC)OC` [dimethoate], the “Kill (%) 7 d” value in the test with Paratrioza cockerelli (7 d after treatment) was 63%. Further, the “Kill (%) 15 d” value in the test on Paratrioza cockerelli (15 d after treatment) is given as 0%.
Regarding `O=S1OCC2C(CO1)C1(Cl)C(Cl)=C(Cl)C2(Cl)C1(Cl)Cl` (stereo not shown) [endosulfan, reference compound], the “Kill (%) 8 d” value in the test on Aulacorthum solani (setting [7]) is 96%; in the test on Myzus persicae [5] (setting [7]), 95%; in the test with Macrosiphum euphorbiae (setting [7]), 100%. For the same molecule, the “Kill (%) 22 d” value is listed as 88% in the test on Aulacorthum solani (setting [8]), 61% in the test with Myzus persicae [5] (setting [8]) and 100% in the test on Macrosiphum euphorbiae (setting [8]). For the same molecule, the “Kill (%) 30 d” value turned out to be 98% in the test on Aulacorthum solani (setting [9]), 100% with Myzus persicae [5] (setting [9]) and 99% in the test on Macrosiphum euphorbiae (setting [9]). The “Kill (%) 40 d” value with Aulacorthum solani (setting [10]) is listed as 53%; in the test on Macrosiphum euphorbiae (setting [10]), 96%. Further, in the test on Bemisia argentifolii [4] (5 d after first of two treatments), the “Kill (%) 5 d” value worked out at 0%. Moreover, the “Kill (%) 13 d” value with Bemisia argentifolii [4] (13 d after first of two treatments) came out at 100%. For the same molecule, in the test with Bemisia argentifolii [4] (21 d after first of two treatments), the “Kill (%) 21 d” value stood at 80.8%. Also, in the test on Bemisia argentifolii [4] (29 d after first of two treatments), the “Kill (%) 29 d” value was 66.7%.
As for `CNC(=O)CSP(=O)(OC)OC` [omethoate, reference compound], the “Kill (%) 7 d” value with Pemphigus bursarius (7 d) is on record as 20 (7 d) %. In addition, in the test with Pemphigus bursarius (15 d), the “Kill (%) 15 d” value is on record as 70.6 (15 d) %.
Take `CC1=NNC(=O)N(/N=C/c2cccnc2)C1` [pymetrozine, reference compound]: in the test on Bemisia argentifolii [2], the “Kill (%) 13 d” value turned out to be 79%, the “Kill (%) 20 d” value is 74% and the “Kill (%) 27 d” value is reported as 75%. For the same molecule, the “Kill (%) 7 d” value with Myzus persicae [6] (7 d after treatment) turned out to be 99.9%. Further, in the test on Myzus persicae [6] (14 d after treatment), the “Kill (%) 14 d” value was 99%. Moreover, in the test on Myzus persicae [6] (21 d after treatment), the “Kill (%) 21 d” value came out at 95%. Moreover, in the test on Myzus persicae [6] (29 d after treatment), the “Kill (%) 29 d” value was determined as 73%.
